# Measured values published in article PMC7921117, “Structural characterization of the microbial enzyme urocanate reductase mediating imidazole propionate production” (Nature Communications, 2021).
# Columns and labels:
# UrdA′ (two-domain UrdA) [1] = molecular target: T1, UrdA′ (two-domain UrdA) (Shewanella oneidensis, UniProt Q8CVD0); assay: X-ray structure ([…] Å); type: binding; conditions: no substrate bound; sulfate in active site; FAD also in 6T87 and 6T88
# T1 construct: clamp and FAD domains, residues 130-582, C-terminal 6xHis kept, N-terminal FMN domain absent; E. coli TUNER(DE3) (mutants BL21(DE3)); mostly monomer
# UrdA′ (two-domain UrdA) [2] = molecular target: T1, UrdA′ (two-domain UrdA); assay: X-ray structure ([…] Å); activity inhibition; conditions: ADP in the FAD-binding site; no urocanate bound, glycerol in substrate site
# T1 sequence (Q8CVD0 130-582): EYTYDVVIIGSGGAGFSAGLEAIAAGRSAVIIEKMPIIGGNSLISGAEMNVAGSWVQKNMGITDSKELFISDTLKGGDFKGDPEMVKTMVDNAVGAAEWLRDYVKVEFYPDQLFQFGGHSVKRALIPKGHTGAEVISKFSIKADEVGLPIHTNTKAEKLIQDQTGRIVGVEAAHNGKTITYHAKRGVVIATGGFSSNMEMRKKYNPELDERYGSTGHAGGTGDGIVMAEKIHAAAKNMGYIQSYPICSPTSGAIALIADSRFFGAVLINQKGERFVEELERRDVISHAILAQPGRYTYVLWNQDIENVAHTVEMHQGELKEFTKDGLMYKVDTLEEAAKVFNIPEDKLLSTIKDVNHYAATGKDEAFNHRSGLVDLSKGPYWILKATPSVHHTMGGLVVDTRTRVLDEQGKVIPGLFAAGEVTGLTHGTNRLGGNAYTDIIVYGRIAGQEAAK
Structure (SMILES),X-ray structure (2.56 Å) (UrdA′ (two-domain UrdA) [1]),X-ray structure (1.1 Å); activity inhibition (UrdA′ (two-domain UrdA) [2])
Cc1cc2nc3c(=O)[nH]c(=O)nc-3n(C[C@H](O)[C@H](O)[C@H](O)COP(=O)(O)OP(=O)(O)OC[C@H]3O[C@@H](n4cnc5c(N)ncnc54)[C@H](O)[C@@H]3O)c2cc1C [FAD],"6T86 for apo-FAD, 6T87 for uro-FAD, and 6T88 for imp-FAD",
Nc1ncnc2c1ncn2[C@@H]1O[C@H](COP(=O)(O)OP(=O)(O)O)[C@@H](O)[C@H]1O [ADP],,supported by the ADP-induced inhibition of UrdA′ activity
